Test results: patent publication US20060069132A1, “Azolecarboxamide herbicides” (priority 2004, published 2006)

How the values were obtained:
wheat = assay: Test B postemergence herbicide test; type: in vivo, Triticum aestivum; design: key to Wheat plant response rating: 0 = no effect, 100 = complete control
Method in brief: (§1)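 Formulated test chemicals went onto postemergence plants measuring 2 to 18 cm, at one to four leaves. For the paddy assay, species had reached two leaves. Scoring took place 13–15 days later by eye, relative to untreated plants, using 0 for no effect up to 100 for full control.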

pigweed = assay: Test B pre-/postemergence herbicide test; type: in vivo, Amaranthus retroflexus; conditions: for Plant response rating (0 to 100 scale), Pigweed: 0 is no effect; for Pigweed plant response rating: postemergence
Method in brief: (§2)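 Pre: seeds sown, then sprayed. Post: 1–4-leaf plants (2–18 cm) sprayed at the same time. Paddy: flooded, treated at 2-leaf stage. Formulation: non-phytotoxic solvent with surfactant. Greenhouse 13–15 days; visual 0–100 score relative to controls.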

cocklebur = assay: Test B pre-/postemergence herbicide test; type: in vivo, Xanthium strumarium; conditions: for Plant response rating (0 to 100 scale), Cocklebur: 0 is no effect; for Cocklebur plant response rating: postemergence
Method in brief: (§3)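 Visual rating, 0 (no effect) to 100 (complete control), versus untreated controls after 13–15 d in greenhouse. Pre- and postemergence applications (postemergence plants 2–18 cm, 1–4 leaves); flooded paddy arm at 2-leaf stage. Compounds in non-phytotoxic solvent plus surfactant.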

blackgrass = assay: Test B postemergence herbicide test; type: in vivo, Alopecurus myosuroides; conditions: postemergence
Method in brief: (§4)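 Visual ratings, 0 (no effect) to 100 (complete control), made versus controls after 13–15 d greenhouse. Paddy plants treated at 2-leaf stage; postemergence plants at 1- to 4-leaf stage, 2–18 cm tall.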

large crabgrass = assay: Test B pre-/postemergence herbicide test; type: in vivo, Digitaria sanguinalis; conditions: for Plant response rating (0 to 100 scale), Crabgrass, Large: 0 is no effect; for Crabgrass, Large plant response rating: postemergence
Method in brief: as §2

morningglory = assay: Test B pre-/postemergence herbicide test; type: in vivo, Ipomoea coccinea; conditions: for Plant response rating (0 to 100 scale), Morningglory: 0 is no effect; for Morningglory plant response rating: postemergence
Method in brief: as §3

barnyardgrass [1] = assay: Test B pre-/postemergence herbicide test; type: in vivo, Echinochloa crus-galli; conditions: for Plant response rating (0 to 100 scale), Barnyardgrass: 0 is no effect; for Barnyardgrass plant response rating: postemergence
Method in brief: as §3

giant foxtail = assay: Test B pre-/postemergence herbicide test; type: in vivo, Setaria faberi; conditions: for Plant response rating (0 to 100 scale), Foxtail, Giant: 0 is no effect; for Foxtail, Giant plant response rating: postemergence
Method in brief: as §2

[2] = tested on: small flower umbrella sedge; assay: Test B flooded paddy test; type: in vivo, Cyperus difformis; conditions: 1000 g ai/ha, scale 0 to 100 (0 no effect, 100 complete control)
Method in brief: as §4

Surinam grass = assay: Test B pre-/postemergence herbicide test; type: in vivo, Urochloa decumbens; conditions: for Plant response rating (0 to 100 scale), Surinam Grass: 0 is no effect; for Surinam Grass plant response rating: postemergence
Method in brief: as §2

barnyardgrass [3] = assay: Test B flooded paddy test; type: in vivo, Echinochloa crus-galli; conditions: 1000 g ai/ha, scale 0 to 100 (0 no effect, 100 complete control)
Method in brief: as §4

corn = assay: Test B pre-/postemergence herbicide test; type: in vivo, Zea mays; conditions: for Plant response rating (0 to 100 scale), Corn: 0 is no effect; for Corn plant response rating: postemergence
Method in brief: as §2

lambsquarters = assay: Test B pre-/postemergence herbicide test; type: in vivo, Chenopodium album; conditions: for Plant response rating (0 to 100 scale), Lambsquarters: 0 is no effect; for Lambsquarters plant response rating: postemergence
Method in brief: as §2

wild oat = assay: Test B postemergence herbicide test; type: in vivo, Avena fatua; conditions: postemergence
Method in brief: as §1

ducksalad = assay: Test B flooded paddy test; type: in vivo, Heteranthera limosa; conditions: 1000 g ai/ha, scale 0 to 100 (0 no effect, 100 complete control)
Method in brief: as §4

rice = assay: Test B flooded paddy test; type: in vivo, Oryza sativa; conditions: 1000 g ai/ha, scale 0 to 100 (0 no effect, 100 complete control)
Method in brief: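 Plants grow to 1- to 4-leaf stage (2–18 cm) for postemergence spraying, or to 2-leaf stage for the paddy test. Formulated compound is applied. Greenhouse holding lasts 13–15 days. Response is scored visually relative to controls, 0 no effect to 100 complete control; a dash means no result.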

velvetleaf = assay: Test B pre-/postemergence herbicide test; type: in vivo, Abutilon theophrasti; conditions: for Plant response rating (0 to 100 scale), Velvetleaf: 0 is no effect, preemergence; for Velvetleaf plant response rating: postemergence
Method in brief: as §2

[4] = 125 g ai/ha, visual rating, scale 0 (no effect) to 100 (complete control), postemergence
[5] = 125 g ai/ha, 100 is complete control, preemergence
[6] = 125 g ai/ha, visual rating, scale 0 (no effect) to 100 (complete control)
[7] = 500 g ai/ha, visual rating, 0 = no effect, 100 = complete control, preemergence
[8] = 500 g ai/ha, scale 0 to 100, 0 is no effect, 100 is complete control
[9] = 125 g ai/ha, 100 is complete control

CCc1nn(C(C)(C)C)nc1C(=O)Nc1cc(C(=O)N(C)C)ccc1F [Compound 361]
Wheat plant response rating (wheat; [4]): 0
Wheat plant response rating (wheat; postemergence, 500 g ai/ha, scale 0 to 100, 0 is no effect, 100 is complete control): 0
Plant response rating (0 to 100 scale), Pigweed (pigweed; [5]): 80
Pigweed plant response rating (pigweed; [6]): 20
Plant response rating, Pigweed (pigweed; [7]): 100
Pigweed plant response rating (pigweed; [8]): 40
Plant response rating (0 to 100 scale), Cocklebur (cocklebur; [5]): 0
Cocklebur plant response rating (cocklebur; [6]): 10
Plant response rating, Cocklebur (cocklebur; [7]): 50
Cocklebur plant response rating (cocklebur; [8]): 20
Blackgrass plant response rating (blackgrass; [6]): 10
Blackgrass plant response rating (blackgrass; [8]): 40
Plant response rating (0 to 100 scale), Crabgrass, Large (large crabgrass; [5]): 80
Crabgrass, Large plant response rating (large crabgrass; [6]): 10
Plant response rating, Crabgrass, Large (large crabgrass; [7]): 100
Crabgrass, Large plant response rating (large crabgrass; [8]): 10
Plant response rating (0 to 100 scale), Morningglory (morningglory; [5]): 10
Morningglory plant response rating (morningglory; [6]): 10
Plant response rating, Morningglory (morningglory; [7]): 60
Morningglory plant response rating (morningglory; [8]): 80
Plant response rating (0 to 100 scale), Barnyardgrass (barnyardgrass [1]; [5]): 80
Barnyardgrass plant response rating (barnyardgrass [1]; [6]): 0
Plant response rating, Barnyardgrass (barnyardgrass [1]; [7]): 100
Barnyardgrass plant response rating (barnyardgrass [1]; [8]): 10
Plant response rating (0 to 100 scale), Foxtail, Giant (giant foxtail; [5]): 50
Foxtail, Giant plant response rating (giant foxtail; [6]): 20
Plant response rating, Foxtail, Giant (giant foxtail; [7]): 100
Foxtail, Giant plant response rating (giant foxtail; [8]): 30
Sedge, Umbrella plant response rating [2]: 90
Plant response rating (0 to 100 scale), Surinam Grass (Surinam grass; [5]): 50
Surinam Grass plant response rating (Surinam grass; [6]): 10
Plant response rating, Surinam Grass (Surinam grass; [7]): 90
Surinam Grass plant response rating (Surinam grass; [8]): 10
Barnyardgrass plant response rating (barnyardgrass [3]): 80
Plant response rating (0 to 100 scale), Corn (corn; [5]): 30
Corn plant response rating (corn; [6]): 0
Plant response rating, Corn (corn; [7]): 70
Corn plant response rating (corn; [8]): 0
Plant response rating (0 to 100 scale), Lambsquarters (lambsquarters; [5]): 80
Lambsquarters plant response rating (lambsquarters; [6]): 70
Plant response rating, Lambsquarters (lambsquarters; [7]): 100
Lambsquarters plant response rating (lambsquarters; [8]): 70
Oat, Wild plant response rating (wild oat; [6]): 0
Oat, Wild plant response rating (wild oat; [8]): 20
Ducksalad plant response rating (ducksalad): 90
Rice plant response rating (rice): 90
Plant response rating (0 to 100 scale), Velvetleaf (velvetleaf; [9]): 20
Velvetleaf plant response rating (velvetleaf; [6]): 10
Velvetleaf plant response rating (velvetleaf; [8]): 30

CCNC(=O)c1ccc(F)c(NC(=O)c2nn(C(C)(C)C)nc2CC)c1 [Compound 362]
Wheat plant response rating (wheat; [4]): 0
Wheat plant response rating (wheat; 500 g ai/ha, scale 0 to 100, 0 no effect, 100 complete control, preemergence): 30
Plant response rating (0 to 100 scale), Pigweed (pigweed; [5]): 0
Pigweed plant response rating (pigweed; [6]): 20
Plant response rating (0 to 100 scale), Cocklebur (cocklebur; [5]): 0
Cocklebur plant response rating (cocklebur; [6]): 10
Cocklebur plant response rating (cocklebur; [8]): 30
Blackgrass plant response rating (blackgrass; [6]): 10
Blackgrass plant response rating (blackgrass; [8]): 20
Plant response rating (0 to 100 scale), Crabgrass, Large (large crabgrass; [5]): 20
Crabgrass, Large plant response rating (large crabgrass; [6]): 0
Crabgrass, Large plant response rating (large crabgrass; [8]): 0
Plant response rating (0 to 100 scale), Morningglory (morningglory; [5]): 0
Morningglory plant response rating (morningglory; [6]): 10
Plant response rating (0 to 100 scale), Barnyardgrass (barnyardgrass [1]; [5]): 10
Barnyardgrass plant response rating (barnyardgrass [1]; [6]): 0
Barnyardgrass plant response rating (barnyardgrass [1]; [8]): 0
Plant response rating (0 to 100 scale), Foxtail, Giant (giant foxtail; [5]): 10
Foxtail, Giant plant response rating (giant foxtail; [6]): 10
Foxtail, Giant plant response rating (giant foxtail; [8]): 10
Sedge, Umbrella plant response rating [2]: 90
Plant response rating (0 to 100 scale), Surinam Grass (Surinam grass; [5]): 10
Surinam Grass plant response rating (Surinam grass; [6]): 10
Barnyardgrass plant response rating (barnyardgrass [3]): 50
Plant response rating (0 to 100 scale), Corn (corn; [5]): 0
Corn plant response rating (corn; [6]): 0
Corn plant response rating (corn; [8]): 0
Plant response rating (0 to 100 scale), Lambsquarters (lambsquarters; [5]): 0
Lambsquarters plant response rating (lambsquarters; [6]): 10
Oat, Wild plant response rating (wild oat; [6]): 20
Ducksalad plant response rating (ducksalad): 90
Rice plant response rating (rice): 60
Plant response rating (0 to 100 scale), Velvetleaf (velvetleaf; [9]): 0
Velvetleaf plant response rating (velvetleaf; [6]): 0
